Data set [1] has as its system amyloid plaques. In words: Autoradiography using postmortem brain section of patient with Alzheimer's disease (Example 7). The settings on record: brain section (temporal lobe) of Alzheimer's disease patient; 0.37 MBq/100 μL, 1 hour. It counts as binding, human (Alzheimer's disease patient). Here is the method: A postmortem autopsy brain section (temporal lobe) of a patient with Alzheimer's disease was incubated together with each of [^18F]E3, [^18F]D3, [^18F]E1, and [^18F]E2 (0.37 MBq/100 μL each) at room temperature for 1 hour. The resultant was washed with a 50 volume % ethanol aqueous solution (2 minutes×2) and water (2 minutes×2), and after drying, the section was contacted with BAS imaging plate (from Fujifilm Corporation) for 1.5 hours. The image of autoradiography was obtained using BAS5000 scanner system (from Fujifilm Corporation).
A section adjacent to the brain section used was immunostained in the following manner.
First, a paraffin-embedded brain section of the Alzheimer's disease patient (temporal lobe, 6 μm in thickness) was incubated with xylene (15 minutes×2), ethanol (1 minute×2), a 90 volume % ethanol aqueous solution (1 minute×2), and a 70 volume % ethanol aqueous solution (1 minute×1) in that order for complete deparaffinization, and then washed in water (2.5 minutes×2). Thereafter, the section was subjected to autoclave treatment for 15 minutes in 0.01 mol/L citrate buffer solution (pH 6.0). The resultant was incubated in PBS-Tween20 (5 minutes×2), and a mouse anti-Aβ1-42 primary monoclonal antibody (from Wako Pure Chemical Industries Ltd.) was then added thereto, which was then incubated at room temperature overnight. The resultant was incubated in PBS-Tween20 (2 minutes×3), and a biotin-goat anti-mouse IgG (from Funakoshi Co., Ltd.) was then added thereto, which was then incubated at room temperature for 1 hour. The resultant was incubated in PBS-Tween20 (5 minutes×3), and a streptavidin-peroxidase complex (from Funakoshi Co., Ltd.) was added thereto, which was then incubated at room temperature for 30 minutes. In addition, the resultant was incubated in PBS-Tween20 (2 minutes×3); 3,3′-diaminobenzidine was added thereto, which was then incubated at room temperature for 30 minutes; and after washing with water, the section was observed under a microscope to provide an immunostained image (FIG. 10).

Data set [2] is described as follows: In vivo radioactivity distribution experiment (Example 8). To be noted: ddY mice, tail vein, SD in parenthesis. As to the method: Through the tail vein of ddY mice (male, 5 week-old) was injected each of a 10 volume % ethanol-containing saline solution of [^18F]E3 (45.4 kBq, 100 μL), a 10 volume % ethanol-containing saline solution of [^18F]D3 (38.2 kBq, 100 μL), a 10 volume % ethanol-containing saline solution of [^18F]E1 (45.1 kBq, 100 μL), and a 10 volume % ethanol-containing saline solution of [^18F]E2 (40.6 kBq, 100 μL). Five mice were used for each group and sacrificed 2, 10, 30, and 60 minutes after administration to remove major organs. The blood and organs were weighed and further measured for radioactivity using a γ counter. The amount of radioactivity per unit mass was measured in each organ to evaluate radioactivity distribution.

Data set [3] has as its target T1, Aβ1-42 aggregates (Homo sapiens, UniProt P05067).
T1 construct: Aβ1-42 aggregates (Peptide Institute, Inc, Osaka) were dissolved in 0.1 mol/L phosphate-buffered saline; purchased Peptide Institute, Inc., Osaka
In words: [^125I]IMPY binding inhibition experiment (Example 5). To be noted: for binding property to Aβ1-42 aggregates: [^125I]IMPY binding inhibition, result in words. Here is the method:
Aβ1-42 aggregates (Peptide Institute, Inc, Osaka) were dissolved in 0.1 mol/L phosphate-buffered saline (hereinafter referred to as PBS) to 0.25 mg/mL and incubated at 37° C. for 42 hours to prepare an Aβ1-42 aggregate PBS solution. This was further diluted 1:100 with PBS to 2.5 μg/mL and used for an assay.
The mixture was filtered through Whatman (R) GF/B filter, and a γ counter was used to measure the radioactivity of the filter. The measured radioactivity values were used to prepare an inhibition curve to calculate IC50. In addition, the following mathematical expression (1):
was used to calculate an inhibition constant (Ki).

The mark [4] stands for this setting: inhibition of [^125I]IMPY binding to Aβ1-42 aggregates.

pKi: −log10 of the molar value. Where two headings read alike, the source gives them in different places.

T1 sequence (P05067 672-713 limits assumed): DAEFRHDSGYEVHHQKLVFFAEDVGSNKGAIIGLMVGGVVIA

Take “4-(7-(2-[^18F]Fluoroethoxy)quinoxalin-2-yl)-N,N-dimethylaniline [[^18F]E3]”: in data set [1], the “visualization of gray matter / amyloid plaques by autoradiography” value is reported as “amyloid plaques were visualized”. In addition, in data set [2] (2 min. after), the “Radioactivity Amount, Blood” value is reported as 2.26 (0.21) % injected dose/g; the “Radioactivity Amount, Bone” value is on record as 2.45 (0.43) % injected dose/g; the “Radioactivity Amount, Brain” value is reported as 5.78 (0.60) % injected dose/g; the “Radioactivity Amount, Heart” value is recorded as 6.12 (0.79) % injected dose/g. Besides, in data set [2] (2 min. after), the “Radioactivity Amount, Intestine” value was 3.24 (0.43) % injected dose/g; the “Radioactivity Amount, Kidney” value was 8.65 (0.88) % injected dose/g; the “Radioactivity Amount, Liver” value is reported as 11.9 (1.35) % injected dose/g; the “Radioactivity Amount, Lung” value is 5.74 (0.48) % injected dose/g. In data set [2] (2 min. after), the “Radioactivity Amount, Pancreas” value is given as 6.82 (0.80) % injected dose/g; the “Radioactivity Amount, Spleen” value is given as 3.67 (0.40) % injected dose/g; the “Radioactivity Amount, Stomach*” value is reported as 1.07 (0.20) % injected dose per organ. Moreover, in data set [2] (10 min. after), the “Radioactivity Amount, Blood” value is on record as 1.91 (0.68) % injected dose/g; the “Radioactivity Amount, Bone” value is 2.20 (0.09) % injected dose/g; the “Radioactivity Amount, Brain” value was 3.82 (0.33) % injected dose/g; the “Radioactivity Amount, Heart” value is listed as 3.48 (0.56) % injected dose/g. Further, in data set [2] (10 min. after), the “Radioactivity Amount, Intestine” value is reported as 7.95 (1.28) % injected dose/g; the “Radioactivity Amount, Kidney” value is on record as 5.19 (0.88) % injected dose/g; the “Radioactivity Amount, Liver” value is 11.7 (0.80) % injected dose/g; the “Radioactivity Amount, Lung” value is on record as 4.02 (0.32) % injected dose/g. In addition, in data set [2] (10 min. after), the “Radioactivity Amount, Pancreas” value is reported as 3.51 (0.37) % injected dose/g; the “Radioactivity Amount, Spleen” value was 2.89 (0.37) % injected dose/g; the “Radioactivity Amount, Stomach*” value is listed as 2.54 (0.88) % injected dose per organ. Also, in data set [2] (30 min. after), the “Radioactivity Amount, Blood” value is 2.42 (0.17) % injected dose/g; the “Radioactivity Amount, Bone” value is on record as 2.10 (0.39) % injected dose/g; the “Radioactivity Amount, Brain” value is on record as 1.85 (0.09) % injected dose/g; the “Radioactivity Amount, Heart” value is listed as 2.43 (0.12) % injected dose/g. In data set [2] (30 min. after), the “Radioactivity Amount, Intestine” value was 16.2 (1.71) % injected dose/g; the “Radioactivity Amount, Kidney” value was 3.30 (0.27) % injected dose/g; the “Radioactivity Amount, Liver” value was 7.11 (1.56) % injected dose/g; the “Radioactivity Amount, Lung” value was 2.80 (0.15) % injected dose/g. Also, in data set [2] (30 min. after), the “Radioactivity Amount, Pancreas” value is 2.31 (0.19) % injected dose/g; the “Radioactivity Amount, Spleen” value is given as 2.31 (0.21) % injected dose/g; the “Radioactivity Amount, Stomach*” value was 2.02 (0.63) % injected dose per organ. Also, in data set [2] (60 min. after), the “Radioactivity Amount, Blood” value is 2.38 (0.25) % injected dose/g; the “Radioactivity Amount, Bone” value is on record as 2.02 (0.36) % injected dose/g; the “Radioactivity Amount, Brain” value is reported as 1.48 (0.07) % injected dose/g; the “Radioactivity Amount, Heart” value was 2.22 (0.08) % injected dose/g. In addition, in data set [2] (60 min. after), the “Radioactivity Amount, Intestine” value is given as 17.9 (3.64) % injected dose/g; the “Radioactivity Amount, Kidney” value is on record as 3.51 (1.21) % injected dose/g; the “Radioactivity Amount, Liver” value was 5.30 (0.82) % injected dose/g; the “Radioactivity Amount, Lung” value is given as 2.20 (0.14) % injected dose/g. In data set [2] (60 min. after), the “Radioactivity Amount, Pancreas” value is on record as 1.60 (0.18) % injected dose/g; the “Radioactivity Amount, Spleen” value is 1.74 (0.05) % injected dose/g; the “Radioactivity Amount, Stomach*” value is listed as 1.42 (0.22) % injected dose per organ.
For the compound `CN(C)c1ccc(-c2cnc3cc(OCCF)ccc3n2)cc1` [Compound D3, 4-(6-(2-Fluoroethoxy)quinoxalin-2-yl)-N,N-dimethylaniline], in data set [3], the pKi was 9.02 and the “binding property to Aβ1-42 aggregates” value is recorded as “sufficiently high binding property”.
As for `Nc1ccc(-c2cnc3ccc(OCCF)cc3n2)cc1` [Compound E1, 4-(7-(2-Fluoroethoxy)quinoxalin-2-yl)aniline], the “binding property to Aβ1-42 aggregates” value in data set [3] is reported as “not each confirmed to have a sufficient binding property”. This compound also gave a pKi in data set [3] (setting [4]) of 5.93.
For `CNc1ccc(-c2cnc3ccc(OCCF)cc3n2)cc1` [Compound E2, 4-(7-(2-Fluoroethoxy)quinoxalin-2-yl)-N-methylaniline], in that order: “not each confirmed to have a sufficient binding property” and 6.12.
For `CN(C)c1ccc(-c2cnc3ccc(OCCF)cc3n2)cc1` [Compound E3, 4-(7-(2-Fluoroethoxy)quinoxalin-2-yl)-N,N-dimethylaniline], in that order: “sufficiently high binding property” and 6.95.
Consider `Nc1ccc(-c2cnc3ccc(OCC[18F])cc3n2)cc1` [[^18F]E1, 4-(7-(2-[^18F]Fluoroethoxy)quinoxalin-2-yl)aniline], for which the “visualization of gray matter / amyloid plaques by autoradiography” value in data set [1] is listed as “did not visualize the gray matter but rather strongly visualized the white matter”. Further, the “Radioactivity Amount, Liver” value is 9.18 (1.45) % injected dose/g in data set [2] (2 min. after), 12.1 (1.82) % injected dose/g in data set [2] (10 min. after), 8.76 (1.01) % injected dose/g in data set [2] (30 min. after) and 6.52 (0.93) % injected dose/g in data set [2] (60 min. after).

As a reminder, the pKi is −log10 of the Ki, conventionally taken in molar units.

(Values after patent publication US20140088306A1, “RADIOACTIVE FLUORINE-LABELED QUINOXALINE COMPOUND” (Nihon Medi-Physics Co., Ltd., priority 2012, published 2014).)
